Source: article PMC4472440, “Structure-Dependent Immune Modulatory Activity of Protegrin-1 Analogs” (Antibiotics, 2014)
Where no end group is shown, it is not given here.

Experiments:
[1] = tested on: meningococcal LOS (TLR4 ligand); test: Inhibition of meningococcal LOS activity in macrophages (Table 1); assay type: cell-based, Neisseria meningitidis; settings: peptide 2 µg/mL preincubated with meningococcal LOS 30 min at 37 °C, macrophages stimulated overnight; read-out behind the % not stated in Table 1
Procedure: (§1) Human THP-1 (monocyte-like cells) and murine RAW264 macrophages were stimulated with TLR ligands with or without preincubation with PG-1 and its analogs (Table 1). Purified meningococcal CPS samples were freshly dissolved in pyrogen-free sterile H2O at 1 mg/mL stock concentration and vortexed for 2 min. Working CPS concentrations (ranging from 100 µg/mL to 1 µg/mL) were made in duplicate wells using sterile PBS by serial fold dilutions in the 96-well tissue culture plates (Becton Dickinson, Franklin Lakes, NJ, USA) at 50 µL final volumes. PG-1 analogs (2 µg/mL) or PBS equivalent volumes were added to designated wells and preincubated for 30 min at 37 °C. Freshly grown THP-1 cells and murine macrophages, each adjusted to 10^6 cell/mL and 250 µL aliquots, were dispensed into each well at a final cell density of 250 × 10^3 in the designated 96-well plates. The plates were incubated overnight at 37 °C with 5% CO2 and humidity. Supernatants from stimulated cells were harvested and stored at −20 °C until use.
(§2) The cytokines TNFα and IL-1β, released from THP-1 cells, were quantified by DuoSet ELISA (R&D Systems), as previously described. […]
(§3) Freshly grown adherent RAW264 macrophages were harvested, washed and re-suspended in Dulbecco’s complete media, counted and adjusted to 10^6 cell/mL. […] Nitric oxide release was quantified using the Greiss chemical method, as previously described.

[2] = tested on: meningococcal capsular polysaccharide (CPS) polymers (TLR2 and TLR4 ligand); test: Inhibition of meningococcal CPS polymer activity in macrophages (Table 1); assay type: cell-based, Neisseria meningitidis; settings: peptide 2 µg/mL preincubated with meningococcal CPS polymers 30 min at 37 °C, macrophages stimulated overnight; read-out behind the % not stated in Table 1
Procedure: as §1, §2, §3

[3] = tested on: RAW264 macrophages induced with meningococcal LOS; test: Nitric oxide release from RAW264 macrophages induced with meningococcal LOS, Greiss method; assay type: cell-based, murine; settings: RAW264, LOS doses preincubated with 2 µg/mL peptide 30 min at 37 °C, overnight, Figure 6, result in words
Procedure: Figure 6 PG-1 analogs neutralized meningococcal LOS bioactivity and inhibited nitric oxide release. Nitric oxide was released from murine RAW264 macrophages induced overnight with meningococcal LOS doses pre-incubated with or without 2 µg/mL of PG-1 or its analogs for 30 min at 37 °C. Nitric oxide release was measured by the Greiss method. Error bars represent ± SD from the mean of duplicate measurements. This experiment is representative of two independent experiments.
as §1, with “Freshly grown THP-1 cells and murine macrophages, each adjusted to 10^6 cell/mL and 250 µL aliquots, were dispensed into each well at a final cell density of 250 × 10^3 in the designated 96-well plates. The plates were incubated overnight at 37 °C with 5% CO2 and humidity. Supernatants from stimulated cells were harvested and stored at −20 °C until use.” left out
as §3

[4] = tested on: RAW264 macrophages induced with meningococcal CPS polymers; test: Nitric oxide release from RAW264 macrophages induced with meningococcal CPS polymers, Greiss method; assay type: cell-based, murine; settings: RAW264, CPS doses preincubated with 2 µg/mL peptide 30 min at 37 °C, overnight, Figure 7, result in words
Procedure: Figure 7 PG-1 analogs neutralized meningococcal capsular polysaccharide (CPS) polymer activity and inhibited nitric oxide release. CPS polymers were purified from the endotoxin-deficient serogroup B meningococcal NMB-lpxA mutant designated CPS. Nitric oxide was released from murine RAW264 macrophages induced overnight with doses of meningococcal CPS polymers pre-incubated with or without 2 µg/mL of PG-1 or its analogs for 30 min at 37 °C. Nitric oxide release was measured by the Greiss method. Error bars represent ±SD from the mean of duplicate measurements. This experiment is representative of two independent experiments.
Human THP-1 (monocyte-like cells) and murine RAW264 macrophages were stimulated with TLR ligands with or without preincubation with PG-1 and its analogs (Table 1). Purified meningococcal CPS samples were freshly dissolved in pyrogen-free sterile H2O at 1 mg/mL stock concentration and vortexed for 2 min. […]
as §3

| Substance | LOS activity inhibition (%) [1] [%] | CPS activity inhibition (%) [2] [%] | Inhibition of nitric oxide release (neutralization of LOS) [3] | Inhibition of nitric oxide release (neutralization of CPS) [4] |
| --- | --- | --- | --- | --- |
| Compound 8: linearized non-cysteine PG-1 analog with alanine replacements (RGGRLAYARRRFAVAVGR-NH2) | 33 | 23 | failed to inhibit | failed to inhibit |
| Protegrin-1 (RGGRLCYCRRRFCVCVGR; not fully specified; cysteine pairing not given here) [Compound 1, native porcine PG-1, 18-residue β-hairpin peptide with two disulfide bridges] | 99.9 | 99 |  |  |
